≈ marks a conversion by molar mass, not a printed value. Where two headings read alike, the source gives them in different places. Positions of bridges follow the written chain, without caps; N, C: chain ends. Non-standard residues stand in square brackets, D forms with d. Residues, ends and D or L forms follow the SMILES beside them. *: point of attachment. dPhe(4-NO2) = N[C@H](Cc1ccc([N+](=O)[O-])cc1)C(=O)O; Benzoyl(4-OPh) = O=C(c1ccc(Oc2ccccc2)cc1)*; Decanoyl(3R-OH) = CCCCCCC[C@@H](O)CC(=O)*; dBip = N[C@H](Cc1ccc(-c2ccccc2)cc1)C(=O)O; d3Pal = N[C@H](Cc1cccnc1)C(=O)O; dDab = NCC[C@@H](N)C(=O)O; Dab = NCC[C@H](N)C(=O)O; Dap = NC[C@H](N)C(=O)O
Key:
[1] = test system: P. aeruginosa GN_105, PmxR; settings: GN 105, PmxR
How it was run: (§1)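 Mid-log cultures grown in Mueller Hinton broth at 37° C were tested by 2-fold broth microdilution at 5×10^5 CFU/mL final. Compounds were dissolved in water and tested over a final range of 32 to 0.015 μg/mL.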

[2] = test system: S. aureus ATCC 25923, MSSA; settings: ATCC 25923
How it was run: as §1

[3] = test system: K. pneumoniae ATCC 700603, MDR; settings: ATCC 700603
How it was run: as §1

K. pneumoniae ATCC 13883 = settings: ATCC 13883
How it was run: as §1

A. baumannii GN_093 PmxR = settings: GN 093 PmxR
How it was run: as §1

[4] = test system: P. aeruginosa GN_043, PmxR
How it was run: as §1

P. aeruginosa ATCC 27853 = settings: ATCC 27853
How it was run: as §1

[5] = test system: K. pneumoniae GN_102 PmxR; settings: GN 102 PmxR
How it was run: as §1

[6] = test system: K. pneumoniae ATCC BAA-2146, NDM-1 pos; settings: ATCC BAA-2146
How it was run: as §1

E. coli ATCC 25922 = settings: ATCC 25922
How it was run: as §1

A. baumannii ATCC 19606 = settings: ATCC 19606
How it was run: as §1

[7] = test system: K. pneumoniae GN_106, PmxR; settings: GN 106, PmxR
How it was run: as §1

Structure (SMILES) | MIC P. aeruginosa GN_105, PmxR [1] [µg/mL] | MIC S. aureus ATCC 25923, MSSA [2] [µg/mL] | MIC K. pneumoniae ATCC 700603, MDR [3] [µg/mL] | MIC K. pneumoniae ATCC 13883 (K. pneumoniae ATCC 13883) [µg/mL] | MIC A. baumannii GN_093 PmxR (A. baumannii GN_093 PmxR) [µg/mL] | MIC P. aeruginosa GN_043, PmxR ([4]; polymyxin-resistant) [µg/mL] | MIC P. aeruginosa ATCC 27853 (P. aeruginosa ATCC 27853) [µg/mL] | MIC K. pneumoniae GN_102 PmxR [5] [µg/mL] | MIC K. pneumoniae ATCC BAA-2146, NDM-1 pos [6] [µg/mL] | MIC E. coli ATCC 25922 (E. coli ATCC 25922) [µg/mL] | MIC A. baumannii ATCC 19606 (A. baumannii ATCC 19606) [µg/mL] | MIC K. pneumoniae GN_106, PmxR [7] [µg/mL] | MIC, S. aureus ATCC 25923, MSSA [2] [µg/mL] | MIC, K. pneumoniae ATCC 700603, MDR [3] [µg/mL] | MIC, K. pneumoniae ATCC 13883 (K. pneumoniae ATCC 13883) [µg/mL] | MIC P. aeruginosa GN_043, PmxR ([4]; Table 6, polymyxin-resistant) [µg/mL] | MIC, P. aeruginosa ATCC 27853 (P. aeruginosa ATCC 27853) [µg/mL] | MIC, K. pneumoniae ATCC BAA-2146, NDM-1 pos [6] [µg/mL] | MIC, E. coli ATCC 25922 (E. coli ATCC 25922) [µg/mL] | MIC, A. baumannii ATCC 19606 (A. baumannii ATCC 19606) [µg/mL] | also measured
CCCCCCC[C@@H](O)CC(=O)N[C@@H](CCN)C(=O)N[C@H]1CCNC(=O)[C@H](CC(C)C)NC(=O)[C@H](CN)NC(=O)[C@H](CCN)NC(=O)[C@H](CC(C)C)NC(=O)[C@@H](Cc2ccc(-c3ccccc3)cc2)NC(=O)[C@H](CCN)NC1=O [compound 5565, 3(R)OH-nC9CO-L-Dab-cyc[L-Dab-L-Dab-D-Bip-L-Leu-L-Dab-L-Dap-L-Leu]] ({Decanoyl(3R-OH)}-[Dab][Dab][Dab][dBip]L[Dab][Dap]L; lactam 2-C) | 4 (≈ 3.62 µM) | 2 (≈ 1.81 µM) | 8 (≈ 7.23 µM) | 4 (≈ 3.62 µM) | 16 (≈ 14.5 µM) | 2 (≈ 1.81 µM) | 4 (≈ 3.62 µM) | 32 (≈ 28.9 µM) | 16 (≈ 14.5 µM) | 4 (≈ 3.62 µM) | 8 (≈ 7.23 µM) | 16 (≈ 14.5 µM) |  |  |  |  |  |  |  |  | 
CCCCCCC[C@@H](O)CC(=O)N[C@H](Cc1cccnc1)C(=O)N[C@H]1CCNC(=O)[C@H](CC(C)C)NC(=O)[C@H](CCN)NC(=O)[C@H](CCN)NC(=O)[C@H](CC(C)C)NC(=O)[C@@H](Cc2ccccc2)NC(=O)[C@H](CCN)NC1=O [compound 6445, 3(R)OH-nC9CO-D-3PyPhe-cyc[L-Dab-L-Dab-D-Phe-L-Leu-L-Dab-L-Dab-L-Leu]] ({Decanoyl(3R-OH)}-[d3Pal][Dab][Dab][dF]L[Dab][Dab]L; lactam 2-C) | 8 (≈ 7.32 µM) |  |  |  | >32 |  |  | 8 (≈ 7.32 µM) |  |  |  | 4 (≈ 3.66 µM) | >32 | 8 (≈ 7.32 µM) | 4 (≈ 3.66 µM) | 8 (≈ 7.32 µM) | 16 (≈ 14.6 µM) | 8 (≈ 7.32 µM) | 8 (≈ 7.32 µM) | 32 (≈ 29.3 µM) | 
CC(C)C[C@@H]1NC(=O)[C@H](CCN)NC(=O)[C@H](CCN)NC(=O)[C@H](CC(C)C)NC(=O)[C@@H](Cc2ccccc2)NC(=O)[C@H](CCN)NC(=O)[C@@H](NC(=O)[C@@H](CCN)NC(=O)c2ccc(Oc3ccccc3)cc2)CCNC1=O [compound 6527, Ph-4-OPhCO-D-Dab-cyc[L-Dab-L-Dab-D-Phe-L-Leu-L-Dab-L-Dab-L-Leu]] ({Benzoyl(4-OPh)}-[dDab][Dab][Dab][dF]L[Dab][Dab]L; lactam 2-C) | 4 (≈ 3.74 µM) | >32 | 16 (≈ 14.9 µM) | 16 (≈ 14.9 µM) | >32 |  | 2 (≈ 1.87 µM) | 32 (≈ 29.9 µM) | 16 (≈ 14.9 µM) | 2 (≈ 1.87 µM) | >32 | >32 |  |  |  |  |  |  |  |  | MIC P. aeruginosa GN_043, PmxR [4]: 1 µg/mL (≈ 0.934 µM)
CCCCCCC[C@@H](O)CC(=O)N[C@H](CCN)C(=O)N[C@H]1CCNC(=O)[C@H](CC(C)C)NC(=O)[C@H](C)NC(=O)[C@H](CCN)NC(=O)[C@H](CC(C)C)NC(=O)[C@@H](Cc2ccccc2)NC(=O)[C@H](CCN)NC1=O [compound 4944, 3(R)OH-nC9CO-D-Dab-cyc[L-Dab-L-Dab-D-Phe-L-Leu-L-Dab-L-Ala-L-Leu]] ({Decanoyl(3R-OH)}-[dDab][Dab][Dab][dF]L[Dab]AL; lactam 2-C) | 16 (≈ 15.8 µM) | >32 | 16 (≈ 15.8 µM) | 16 (≈ 15.8 µM) | >32 | 4 (≈ 3.94 µM) | 8 (≈ 7.88 µM) | 8 (≈ 7.88 µM) | 8 (≈ 7.88 µM) | 16 (≈ 15.8 µM) | 32 (≈ 31.5 µM) | 32 (≈ 31.5 µM) |  |  |  |  |  |  |  |  | 
CCCCCCC[C@@H](O)CC(=O)N[C@H](Cc1ccc([N+](=O)[O-])cc1)C(=O)N[C@H]1CCNC(=O)[C@H](CC(C)C)NC(=O)[C@H](CCN)NC(=O)[C@H](CCN)NC(=O)[C@H](CC(C)C)NC(=O)[C@@H](Cc2ccccc2)NC(=O)[C@H](CCN)NC1=O [compound 6448, 3(R)OH-nC9CO-D-4NO2Phe-cyc[L-Dab-L-Dab-D-Phe-L-Leu-L-Dab-L-Dab-L-Leu]] ({Decanoyl(3R-OH)}-[dPhe(4-NO2)][Dab][Dab][dF]L[Dab][Dab]L; lactam 2-C) | 8 (≈ 7.04 µM) |  |  |  | 8 (≈ 7.04 µM) |  |  | 8 (≈ 7.04 µM) |  |  |  | 4 (≈ 3.52 µM) | 16 (≈ 14.1 µM) | 8 (≈ 7.04 µM) | 4 (≈ 3.52 µM) | 8 (≈ 7.04 µM) | 8 (≈ 7.04 µM) | 8 (≈ 7.04 µM) | 4 (≈ 3.52 µM) | 8 (≈ 7.04 µM) | 

— US11279733B2, “Peptide antibiotics” (priority 2017, dated 2022)
